From ChEMBL document CHEMBL2074050, “Reversal of MRP-mediated multidrug resistance in human lung cancer cells by the antiprogestatin drug RU486” (Biochem Biophys Res Commun, 1999)

What was measured:
Type in all cases: functional, cell-based
[1] = molecular target: T1, Multidrug resistance-associated protein 1 (Homo sapiens, UniProt P33527); assay: TP_TRANSPORTER: increase in Calcein intracellular accumulation (Calcein: 0.5 uM, RU486: 50 uM) in GLC4/Sb30 cells; conditions: glc4/sb30, 50 µM
[2] = molecular target: T1, Multidrug resistance-associated protein 1; assay: TP_TRANSPORTER: increase in Calcein intracellular accumulation (Calcein: 0.5 uM, Progesterone: 50 uM) in GLC4/Sb30 cells; conditions: glc4/sb30, 50 µM
[3] = molecular target: T1, Multidrug resistance-associated protein 1; assay: TP_TRANSPORTER: increase in Calcein intracellular accumulation (Calcein: 0.5 uM, Probenecid: 2000 uM) in GLC4/Sb30 cells; conditions: glc4/sb30, 2000 µM

T1 sequence (P33527 whole entry): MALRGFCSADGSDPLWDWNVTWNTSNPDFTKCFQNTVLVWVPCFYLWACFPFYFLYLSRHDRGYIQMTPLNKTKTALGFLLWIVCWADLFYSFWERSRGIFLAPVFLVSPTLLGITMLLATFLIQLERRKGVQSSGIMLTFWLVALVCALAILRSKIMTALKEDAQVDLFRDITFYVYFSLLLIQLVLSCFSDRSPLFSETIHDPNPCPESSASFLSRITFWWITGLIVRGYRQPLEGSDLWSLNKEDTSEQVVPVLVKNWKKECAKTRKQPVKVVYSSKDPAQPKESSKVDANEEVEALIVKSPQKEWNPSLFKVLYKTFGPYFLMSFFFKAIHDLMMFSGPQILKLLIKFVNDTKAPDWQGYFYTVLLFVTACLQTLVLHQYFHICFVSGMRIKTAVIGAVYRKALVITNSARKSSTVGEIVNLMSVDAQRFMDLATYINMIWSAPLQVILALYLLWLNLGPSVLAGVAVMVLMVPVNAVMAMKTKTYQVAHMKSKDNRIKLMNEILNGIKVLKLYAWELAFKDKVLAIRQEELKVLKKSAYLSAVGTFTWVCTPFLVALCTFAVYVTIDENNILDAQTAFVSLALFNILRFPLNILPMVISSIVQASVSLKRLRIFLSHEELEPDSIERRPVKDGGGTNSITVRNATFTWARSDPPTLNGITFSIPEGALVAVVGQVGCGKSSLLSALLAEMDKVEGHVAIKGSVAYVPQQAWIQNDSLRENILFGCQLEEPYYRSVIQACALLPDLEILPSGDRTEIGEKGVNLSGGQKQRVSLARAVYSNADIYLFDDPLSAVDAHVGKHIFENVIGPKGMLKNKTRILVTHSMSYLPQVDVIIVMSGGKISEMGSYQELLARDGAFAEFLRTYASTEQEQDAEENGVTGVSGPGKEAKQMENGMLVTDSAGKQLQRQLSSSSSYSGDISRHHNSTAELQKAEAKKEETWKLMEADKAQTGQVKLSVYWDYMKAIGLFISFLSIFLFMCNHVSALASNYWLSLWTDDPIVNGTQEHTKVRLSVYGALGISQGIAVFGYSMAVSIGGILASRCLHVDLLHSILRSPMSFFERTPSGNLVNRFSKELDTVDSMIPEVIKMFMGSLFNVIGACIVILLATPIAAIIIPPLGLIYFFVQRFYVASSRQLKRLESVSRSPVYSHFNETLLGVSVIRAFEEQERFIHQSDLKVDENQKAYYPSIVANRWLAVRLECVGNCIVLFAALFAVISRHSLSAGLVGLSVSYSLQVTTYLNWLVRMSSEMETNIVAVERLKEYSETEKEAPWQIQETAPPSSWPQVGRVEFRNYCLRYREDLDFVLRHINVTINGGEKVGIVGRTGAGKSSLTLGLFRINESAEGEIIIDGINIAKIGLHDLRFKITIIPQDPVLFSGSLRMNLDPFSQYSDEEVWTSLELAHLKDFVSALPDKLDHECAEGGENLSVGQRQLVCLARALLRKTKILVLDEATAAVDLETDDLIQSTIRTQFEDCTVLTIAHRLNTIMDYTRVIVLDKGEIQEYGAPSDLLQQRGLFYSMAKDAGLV

**Q.** `CC#C[C@]1(O)CC[C@H]2[C@@H]3CCC4=CC(=O)CCC4=C3[C@@H](c3ccc(N(C)C)cc3)C[C@@]21C` [MIFEPRISTONE] was tested. Which Activity [1] did it give?
**A.** The Activity was “inhibitor [+]”.

**Q.** `CC(=O)[C@H]1CC[C@H]2[C@@H]3CCC4=CC(=O)CC[C@]4(C)[C@H]3CC[C@]12C` [PROGESTERONE] was tested. Which Activity [2] did it give?
**A.** Its Activity is “inhibitor [+]”.

**Q.** Which Activity [3] does the source give for `CCCN(CCC)S(=O)(=O)c1ccc(C(=O)O)cc1` [PROBENECID] here?
**A.** The Activity was “inhibitor [+]”.
